Measured values from ChEMBL document CHEMBL5252649, “CRBN ligand expansion for hematopoietic prostaglandin D2 synthase (H-PGDS) targeting PROTAC design and their in vitro ADME profiles” (Bioorg Med Chem, 2023).
Converted amounts (≈) assume the structure as drawn.

Columns and labels:
[1] = Apparent permeability coefficient, Papp of the compound at pH 7.4 incubated for 4 hrs by UPLC/MS/MS analysis; type: ADME; details: for Papp at 4 h: not told, pH 7.4
[2] = Lipophilicity, logD of the compound by UPLC analysis; type: physicochemical; details: octanol/water
[3] = Solubility of the compound in PBS buffer at 100 uM at pH 7.4 by UPLC/MS/MS analysis; type: physicochemical
[4] = Metabolic stability of the compound in human liver microsomes incubated for 10 mins in presence of NADPH by UPLC/MS/MS analysis; type: ADME, Microsome; details: read-out: Stability
[5] = target: Protein cereblon/Hematopoietic prostaglandin D synthase (Homo sapiens, UniProt O60760+Q96SW2); experiment: PROTAC activity at CRBN/H-PGDS in human KU812 cells assessed as induction of H-PGDS degradation by measuring decrease in H-PGDS protein expression incubated for 24 hrs by western blot analysis; type: cell-based; details: for DC50: ku812 cell line; for Activity: KU812 cell line
[6] = Metabolic stability of the compound in human liver microsomes incubated for 60 mins in presence of NADPH by UPLC/MS/MS analysis; type: ADME, Microsome; details: read-out: Stability

SMILES	Papp at 4 h [1] [×10⁻⁶ cm/s]	logD [2]	solubility at 100 µM [3] [µM]	remaining at 10 min [4] [%]	DC50 [5] [nM]	remaining at 1 h [6] [%]	Activity [5]	Papp ([1]; pH 7.4, 4 h) [×10⁻⁶ cm/s]
O=C1CCC(N2C(=O)c3cccc(N4CCN(C(=O)C5CCN(c6ccc(NC(=O)c7cnc(Oc8ccccc8)nc7)cc6)CC5)CC4)c3C2=O)C(=O)N1 (stereo not drawn)	0.07	3.39	1.12 (≈ 0.832 µg/mL)	89	0.036	75		
O=C1CCC(N2C(=O)c3ccc(N4CCN(C(=O)C5CCN(c6ccc(NC(=O)c7cnc(Oc8ccccc8)nc7)cc6)CC5)CC4)cc3C2=O)C(=O)N1 (stereo not drawn)	0.049	3.33	< 0.5	93	0.175	80		
O=C(Nc1ccc(N2CCC(C(=O)N3CCOCC3)CC2)cc1)c1cnc(Oc2ccccc2)nc1	3.01	3.06	3.17 (≈ 1.55 µg/mL)	96		80		
Cn1cccc1C(=O)N1CCN(C(=O)Nc2ccc(N3CCC(C(=O)N4CCN(c5cccc6c5C(=O)N(C5CCC(=O)NC5=O)C6=O)CC4)CC3)cc2)CC1 (stereo not drawn)		2.79	37.4 (≈ 28.6 µg/mL)	93	0.02	79		0.0007

The remaining lines, values ahead:

Papp at 4 h [1] [×10⁻⁶ cm/s]	logD [2]	solubility at 100 µM [3] [µM]	remaining at 10 min [4] [%]	DC50 [5] [nM]	remaining at 1 h [6] [%]	Activity [5]	Papp ([1]; pH 7.4, 4 h) [×10⁻⁶ cm/s]	SMILES
0.009	2.65	2.91 (≈ 2.22 µg/mL)	90	0.02	72			Cn1cccc1C(=O)N1CCN(C(=O)Nc2ccc(N3CCC(C(=O)N4CCN(c5ccc6c(c5)C(=O)N(C5CCC(=O)NC5=O)C6=O)CC4)CC3)cc2)CC1 (stereo not drawn)
0.007	3.5	< 0.5	93	0.147	69	Dose-Dependent Effect		O=C1CCC(N2C(=O)c3cc(F)c(N4CCN(C(=O)C5CCN(c6ccc(NC(=O)c7cnc(Oc8ccccc8)nc7)cc6)CC5)CC4)cc3C2=O)C(=O)N1 (stereo not drawn)
0.2	3	7 (≈ 5.12 µg/mL)	89	0.104	78	Dose-Dependent Effect		O=C1CCC(c2ccc(NCC(=O)N3CCN(C(=O)C4CCN(c5ccc(NC(=O)c6cnc(Oc7ccccc7)nc6)cc5)CC4)CC3)cc2)C(=O)N1 (stereo not drawn)
0.21	2.25	≥ 95	92		83			Cn1cccc1C(=O)N1CCN(C(=O)Nc2ccc(N3CCC(C(=O)N4CCOCC4)CC3)cc2)CC1
